Measurements taken from patent publication US20110118277A1, “METHOD OF TREATING LIVER DISEASE” (priority 2003, published 2011).

Tests used:
[1] = tested on: Mouse hepatic oval cells (HOC); assay: Oval cell growth in culture (WST-8 cell number assay); type: cell-based; conditions: 48 hours; for effect on NE-induced oval cell proliferation: prazosin 10 μM; for effect on NE-induced oval cell proliferation / effect on ISO-induced oval cell proliferation: pertussis toxin 100 ng/ml, PD98059 20 μM, SB202190 10 μM; for effect on ISO-induced oval cell proliferation: propranolol 10 μM
Experimental: Mouse hepatic oval cells (HOC) (from Dr. Bryon Petersen, University of Florida College of Medicine, Gainesville, Fla.) were maintained in culture with Iscove's modified DMEM according to the protocol described in PNAS 99: 8078-8083, 2002. To confirm that the cells retained their oval cell phenotype in our hands, expression of the embryonic isoform of pyruvate kinase (M2-PK) was evaluated by immunocytochemistry and immunoblot.
Sub-confluent HOC were harvested by gentle trypsinisation and resuspended in serum-free Iscove's modified Dulbecco's minimal essential medium (DMEM), at a density of 5,000 cells/100 μl/well in 96-well plates. […] After 44 hours, cell numbers were assessed by a further 4 h incubation with WST-8 tetrazolium reagent (Dojindo Molecular Technologies, Gaithersburg, Md.) as described in J Clin Invest 106: 501-509, 2000. In viable cells, the tetrazolium salt is metabolized to a colorimetric dye and cell number is proportional to the signal intensity at 450 nm Therefore, this assay reliably detects treatment-induced changes in cell number.
Oval cells were cultured in serum free medium (SF), serum or serum plus increasing concentrations of NE (a) or ISO (c). After 48 hours, the numbers of cells in culture were evaluated. […] Cell numbers were determined after 48 hours.

oval cells = assay: Oval cell accumulation in Dbh-deficient mice fed MCD diet plus ethionine; type: in vivo, mouse; conditions: 4 weeks, ISO infused, FIG. 11
From the text: Male Dbh* C57B 116 mice and their heterozygous littermates were generated and maintained as previously described in Cell 91: 583-592, 1997, and used at 30-40 weeks of age. Wild type C57B 116 mice were from Jackson Laboratory (Bar Harbor, Me.) Animals were allowed access to diets and water ad libitum. To induce oval cell expansion, mice were fed methionine choline deficient diets (ICN, Aurora, Ohio) supplemented with 0.15% Ethionine in the drinking water for 4 weeks. […]
Details of the staining procedures are as described in Am J Pathol 161: 521-530, 2002. […] Mouse monoclonal OV6 antibody and rat anti-cytokeratin 19 were detected using the DAKO Animal Research Kit, peroxidase (Dako, Denmark). The rabbit polyclonal antibody against 56 and 64 kiD human callus cytokeratins was detected by anti-rabbit Envision (Dako, Denmark) as described in J Pathol 199:191-200, 2003. […]
For each liver section, the number of oval cells in 5, randomly selected, non-overlapping, high power (×40 objective) fields was counted. […] Interlobular bile ducts were not considered progenitor cells and, thus not counted as such.
Dbh* and their control Dbh* littermates were fed methionine choline deficient (MCD) diets to induce oval cell expansion. […] Oval cell numbers were counted in 5 randomly selected fields/section from 4 mice/group. […]

| Compound | effect on NE-induced oval cell proliferation [1] | effect on ISO-induced oval cell proliferation [1] | effect on proliferation of cultured oval cells ([1]; 5% serum) | further results |
| --- | --- | --- | --- | --- |
| Oc1ccc(-c2nc(-c3ccncc3)c(-c3ccc(F)cc3)[nH]2)cc1 [SB202190] | tends to reduce the effect of NE and ISO, but this is not statistically significant | tends to reduce the effect of NE and ISO, but this is not statistically significant |  |  |
| COc1cccc(-c2cc(=O)c3ccccc3o2)c1N [PD98059] | significantly attenuated | significantly attenuated |  |  |
| pertussis toxin | significantly attenuated | significantly attenuated |  |  |
| CC(C)NCC(O)COc1cccc2ccccc12 (centres unmarked) [propranolol] |  | attenuated |  |  |
| CC(C)NCC(O)c1ccc(O)c(O)c1 (centres unmarked) [ISO, isoprenaline] |  |  | promotes the proliferation of oval cells | concentration of peak proliferative activity (biphasic), first peak ([1]; ISO, 5% serum): 100 nM; concentration of peak proliferative activity (biphasic), second peak ([1]; ISO, 5% serum): 10 mM; hepatic oval cell accumulation in Dbh-deficient mice (oval cells): p<0.05 Dbh*+ISO versus Dbh* |
| NC[C@H](O)c1ccc(O)c(O)c1 [NE, norepinephrine] |  |  | significantly promote the proliferation of cultured oval cells | concentration of maximal proliferative effect ([1]; NE, 5% serum): 100 nM; concentration up to which the proliferative effect persists ([1]; NE, 5% serum): up to 100 μM |
